# Experimental data: patent US10633419B2, “Immunomodulators” (BRISTOL-MYERS SQUIBB COMPANY, priority 2014, dated 2020)
# Positions of bridges follow the written chain, without caps; N, C: chain ends. Non-standard residues stand in square brackets, D forms with d. Residues, ends and D or L forms follow the SMILES beside them. Trp(1-CH2COOH) = N[C@@H](Cc1cn(CC(=O)O)c2ccccc12)C(=O)O; Bta = N[C@@H](Cc1csc2ccccc12)C(=O)O; Aha = [N-]=[N+]=NCC[C@H](N)C(=O)O; Hyp = O=C(O)[C@@H]1C[C@@H](O)CN1; NMeNle = CCCC[C@H](NC)C(=O)O; Dap(Me) = CNC[C@H](N)C(=O)O; Pip = O=C(O)[C@@H]1CCCCN1; NMeA = CN[C@@H](C)C(=O)O; Pra = C#CC[C@H](N)C(=O)O; Dab = NCC[C@H](N)C(=O)O; Dap = NC[C@H](N)C(=O)O
# Target: T1, PD-L1 (Homo sapiens, UniProt Q9NZQ7)
# T1 construct: hPDL1(19-239)-TVMV-His; made in house; host or cells: HEK293T
# T1 sequence (Q9NZQ7 with tags, fused parts or gaps): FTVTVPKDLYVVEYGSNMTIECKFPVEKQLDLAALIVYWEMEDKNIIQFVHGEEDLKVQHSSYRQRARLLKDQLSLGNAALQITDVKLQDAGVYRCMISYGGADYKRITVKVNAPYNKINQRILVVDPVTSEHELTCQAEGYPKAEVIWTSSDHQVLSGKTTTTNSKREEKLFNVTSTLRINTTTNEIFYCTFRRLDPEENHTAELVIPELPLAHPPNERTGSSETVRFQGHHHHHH
# Assay: PD-1/PD-L1 Homogenous Time-Resolved Fluorescence (HTRF) binding assay (PD-1-Ig/PD-L1-His)
# Details: inhibition of PD-1-Ig binding to PD-L1-TVMV-His; value given as range class; read-out: HTRF IC50
# In short: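 Inhibitors pre-incubated 15 min with PD-L1-His (10 nM final), then PD-1-Ig (20 nM final) added for 15 min in dPBS/0.1% BSA/0.05% Tween-20. Eu-cryptate anti-Ig (1 nM) and APC anti-His (20 nM) added, 30 min equilibration, 665/620 nm HTRF ratio read.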
row,IC50,SMILES
1,10 to 99 nM,C#CC[C@H](NC(=O)CNC(=O)CNC(=O)[C@@H]1CSCC(=O)N[C@@H](Cc2ccc(O)cc2)C(=O)N(C)[C@@H](C)C(=O)N[C@@H](CC(N)=O)C(=O)N2CCC[C@H]2C(=O)N[C@@H](CN)C(=O)N[C@@H](CC(C)C)C(=O)N2C[C@H](O)C[C@H]2C(=O)N[C@@H](Cc2c[nH]c3ccccc23)C(=O)N[C@@H](CCN)C(=O)N[C@@H](Cc2cn(CC(=O)O)c3ccccc23)C(=O)N(C)[C@@H](CCCC)C(=O)N(C)[C@@H](CCCC)C(=O)N[C@@H](CC(C)C)C(=O)N1)C(=O)O [INT130AA] ({CH2CO}-Y[NMeA]NP[Dap]L[Hyp]W[Dab][Trp(1-CH2COOH)][NMeNle][NMeNle]LCGG[Pra]-OH; thioether N-14)
2,10 to 99 nM,C#CC[C@H](NC(=O)CNC(=O)CNC(=O)CNC(=O)[C@@H]1CSCC(=O)N[C@@H](Cc2ccc(O)cc2)C(=O)N(C)[C@@H](C)C(=O)N[C@@H](CC(N)=O)C(=O)N2CCC[C@H]2C(=O)N[C@@H](CN)C(=O)N[C@@H](CC(C)C)C(=O)N2C[C@H](O)C[C@H]2C(=O)N[C@@H](Cc2c[nH]c3ccccc23)C(=O)N[C@@H](CCN)C(=O)N[C@@H](Cc2cn(CC(=O)O)c3ccccc23)C(=O)N(C)[C@@H](CCCC)C(=O)N(C)[C@@H](CCCC)C(=O)N[C@@H](CC(C)C)C(=O)N1)C(=O)O [INT130AB] ({CH2CO}-Y[NMeA]NP[Dap]L[Hyp]W[Dab][Trp(1-CH2COOH)][NMeNle][NMeNle]LCGGG[Pra]-OH; thioether N-14)
3,10 to 99 nM,C#CC[C@H](NC(=O)CNC(=O)[C@@H]1CSCC(=O)N[C@@H](Cc2ccc(O)cc2)C(=O)N(C)[C@@H](C)C(=O)N[C@@H](CC(N)=O)C(=O)N2CCC[C@H]2C(=O)N[C@@H](CN)C(=O)N[C@@H](CC(C)C)C(=O)N2C[C@H](O)C[C@H]2C(=O)N[C@@H](Cc2c[nH]c3ccccc23)C(=O)N[C@@H](CCN)C(=O)N[C@@H](Cc2cn(CC(=O)O)c3ccccc23)C(=O)N(C)[C@@H](CCCC)C(=O)N(C)[C@@H](CCCC)C(=O)N[C@@H](CCC(=O)O)C(=O)N1)C(=O)O [INT130AD] ({CH2CO}-Y[NMeA]NP[Dap]L[Hyp]W[Dab][Trp(1-CH2COOH)][NMeNle][NMeNle]ECG[Pra]-OH; thioether N-14)
4,10 to 99 nM,C#CC[C@H](NC(=O)CNC(=O)[C@@H]1CSCC(=O)N[C@@H](Cc2ccc(O)cc2)C(=O)N(C)[C@@H](C)C(=O)N[C@@H](CC(=O)O)C(=O)N2CCC[C@H]2C(=O)N[C@@H](CN)C(=O)N[C@@H](CC(C)C)C(=O)N2C[C@H](O)C[C@H]2C(=O)N[C@@H](Cc2c[nH]c3ccccc23)C(=O)N[C@@H](CCN)C(=O)N[C@@H](Cc2cn(CC(=O)O)c3ccccc23)C(=O)N(C)[C@@H](CCCC)C(=O)N(C)[C@@H](CCCC)C(=O)N[C@@H](CCC(=O)O)C(=O)N1)C(=O)O [INT130AE] ({CH2CO}-Y[NMeA]DP[Dap]L[Hyp]W[Dab][Trp(1-CH2COOH)][NMeNle][NMeNle]ECG[Pra]-OH; thioether N-14)
5,0.3 to 9.9 nM,C#CC[C@H](NC(=O)[C@@H]1CSCC(=O)N[C@@H](Cc2ccc(O)cc2)C(=O)N(C)[C@@H](C)C(=O)N[C@@H](CC(N)=O)C(=O)N2CCC[C@H]2C(=O)N[C@@H](CN)C(=O)N[C@@H](CC(C)C)C(=O)N2C[C@H](O)C[C@H]2C(=O)N[C@@H](Cc2c[nH]c3ccccc23)C(=O)N[C@@H](CCN)C(=O)N[C@@H](Cc2cn(CC(=O)O)c3ccccc23)C(=O)N(C)[C@@H](CCCC)C(=O)N(C)[C@@H](CCCC)C(=O)N[C@@H](CC(C)C)C(=O)N1)C(=O)O [INT130AF] ({CH2CO}-Y[NMeA]NP[Dap]L[Hyp]W[Dab][Trp(1-CH2COOH)][NMeNle][NMeNle]LC[Pra]-OH; thioether N-14)
6,0.3 to 9.9 nM,C#CC[C@H](NC(=O)[C@@H]1CSCC(=O)N[C@@H](Cc2ccc(O)cc2)C(=O)N(C)[C@@H](C)C(=O)N[C@@H](CC(N)=O)C(=O)N2CCC[C@H]2C(=O)N[C@@H](CN)C(=O)N[C@@H](CC(C)C)C(=O)N2C[C@H](O)C[C@H]2C(=O)N[C@@H](Cc2c[nH]c3ccccc23)C(=O)N[C@@H](CCN)C(=O)N[C@@H](Cc2cn(CC(=O)O)c3ccccc23)C(=O)N(C)[C@@H](CCCC)C(=O)N(C)[C@@H](CCCC)C(=O)N[C@@H](CCC(=O)O)C(=O)N1)C(=O)O [INT130AG] ({CH2CO}-Y[NMeA]NP[Dap]L[Hyp]W[Dab][Trp(1-CH2COOH)][NMeNle][NMeNle]EC[Pra]-OH; thioether N-14)
7,0.3 to 9.9 nM,C#CC[C@H](NC(=O)[C@@H]1CSCC(=O)N[C@@H](Cc2ccc(O)cc2)C(=O)N(C)[C@@H](C)C(=O)N[C@@H](CC(N)=O)C(=O)N2CCC[C@H]2C(=O)N[C@@H](CN)C(=O)N[C@@H](CC(C)C)C(=O)N2C[C@H](O)C[C@H]2C(=O)N[C@@H](Cc2c[nH]c3ccccc23)C(=O)N[C@@H](CCN)C(=O)N[C@@H](Cc2cn(CC(=O)O)c3ccccc23)C(=O)N(C)[C@@H](CCCC)C(=O)N(C)[C@@H](CCCC)C(=O)N[C@@H](CC(=O)O)C(=O)N1)C(=O)O [INT130AH] ({CH2CO}-Y[NMeA]NP[Dap]L[Hyp]W[Dab][Trp(1-CH2COOH)][NMeNle][NMeNle]DC[Pra]-OH; thioether N-14)
8,0.3 to 9.9 nM,C#CC[C@H](NC(=O)CNC(=O)[C@@H]1CSCC(=O)N[C@@H](Cc2ccc(O)cc2)C(=O)N2CCCC[C@H]2C(=O)N[C@@H](CC(N)=O)C(=O)N2CCC[C@H]2C(=O)N[C@@H](CN)C(=O)N[C@@H](CC(C)C)C(=O)N2C[C@H](O)C[C@H]2C(=O)N[C@@H](Cc2c[nH]c3ccccc23)C(=O)N[C@@H](CCN)C(=O)N[C@@H](Cc2cn(CC(=O)O)c3ccccc23)C(=O)N(C)[C@@H](CCCC)C(=O)N(C)[C@@H](CCCC)C(=O)N[C@@H](CC(C)C)C(=O)N1)C(=O)O [INT130AI] ({CH2CO}-Y[Pip]NP[Dap]L[Hyp]W[Dab][Trp(1-CH2COOH)][NMeNle][NMeNle]LCG[Pra]-OH; thioether N-14)
9,0.3 to 9.9 nM,C#CC[C@H](NC(=O)CNC(=O)[C@@H]1CSCC(=O)N[C@@H](Cc2ccc(O)cc2)C(=O)N2CCCC[C@H]2C(=O)N[C@@H](CC(N)=O)C(=O)N2CCC[C@H]2C(=O)N[C@@H](CN)C(=O)N[C@@H](CC(C)C)C(=O)N2C[C@H](O)C[C@H]2C(=O)N[C@@H](Cc2c[nH]c3ccccc23)C(=O)N[C@@H](CCN)C(=O)N[C@@H](Cc2cn(CC(=O)O)c3ccccc23)C(=O)N(C)[C@@H](CCCC)C(=O)N(C)[C@@H](CCCC)C(=O)N[C@@H](CCC(=O)O)C(=O)N1)C(=O)O [INT130AJ] ({CH2CO}-Y[Pip]NP[Dap]L[Hyp]W[Dab][Trp(1-CH2COOH)][NMeNle][NMeNle]ECG[Pra]-OH; thioether N-14)
10,0.3 to 9.9 nM,C#CC[C@H](NC(=O)CNC(=O)[C@@H]1CSCC(=O)N[C@@H](Cc2ccc(O)cc2)C(=O)N2CCCC[C@H]2C(=O)N[C@@H](CC(N)=O)C(=O)N2CCC[C@H]2C(=O)N[C@@H](CNC)C(=O)N[C@@H](CC(C)C)C(=O)N2C[C@H](O)C[C@H]2C(=O)N[C@@H](Cc2c[nH]c3ccccc23)C(=O)N[C@@H](CCN)C(=O)N[C@@H](Cc2cn(CC(=O)O)c3ccccc23)C(=O)N(C)[C@@H](CCCC)C(=O)N(C)[C@@H](CCCC)C(=O)N[C@@H](CC(C)C)C(=O)N1)C(=O)O [INT130AK] ({CH2CO}-Y[Pip]NP[Dap(Me)]L[Hyp]W[Dab][Trp(1-CH2COOH)][NMeNle][NMeNle]LCG[Pra]-OH; thioether N-14)
11,0.3 to 9.9 nM,C#CC[C@H](NC(=O)CNC(=O)[C@@H]1CSCC(=O)N[C@@H](Cc2ccc(O)cc2)C(=O)N2CCCC[C@H]2C(=O)N[C@@H](CC(N)=O)C(=O)N2CCC[C@H]2C(=O)N[C@@H](CNC)C(=O)N[C@@H](CC(C)C)C(=O)N2C[C@H](O)C[C@H]2C(=O)N[C@@H](Cc2c[nH]c3ccccc23)C(=O)N[C@@H](CCN)C(=O)N[C@@H](Cc2cn(CC(=O)O)c3ccccc23)C(=O)N(C)[C@@H](CCCC)C(=O)N(C)[C@@H](CCCC)C(=O)N[C@@H](CCC(=O)O)C(=O)N1)C(=O)O [INT130AL] ({CH2CO}-Y[Pip]NP[Dap(Me)]L[Hyp]W[Dab][Trp(1-CH2COOH)][NMeNle][NMeNle]ECG[Pra]-OH; thioether N-14)
12,0.3 to 9.9 nM,C#CC[C@H](NC(=O)CNC(=O)[C@@H]1CSCC(=O)N[C@@H](Cc2ccc(O)cc2)C(=O)N(C)[C@@H](C)C(=O)N[C@@H](CC(N)=O)C(=O)N2CCC[C@H]2C(=O)N[C@@H](CN)C(=O)N[C@@H](CC(C)C)C(=O)N2C[C@H](O)C[C@H]2C(=O)N[C@@H](Cc2c[nH]c3ccccc23)C(=O)N[C@@H](CO)C(=O)N[C@@H](Cc2csc3ccccc23)C(=O)N(C)[C@@H](CCCC)C(=O)N(C)[C@@H](CCCC)C(=O)N[C@@H](CCCNC(=N)N)C(=O)N1)C(N)=O [INT 1300A] ({CH2CO}-Y[NMeA]NP[Dap]L[Hyp]WS[Bta][NMeNle][NMeNle]RCG[Pra]-NH2; thioether N-14)
13,0.3 to 9.9 nM,CCCC[C@H]1C(=O)N(C)[C@@H](CCCC)C(=O)N[C@@H](CCCNC(=N)N)C(=O)N[C@H](C(=O)NCC(=O)N[C@@H](CCN=[N+]=[N-])C(N)=O)CSCC(=O)N[C@@H](Cc2ccc(O)cc2)C(=O)N(C)[C@@H](C)C(=O)N[C@@H](CC(N)=O)C(=O)N2CCC[C@H]2C(=O)N[C@@H](CN)C(=O)N[C@@H](CC(C)C)C(=O)N2C[C@H](O)C[C@H]2C(=O)N[C@@H](Cc2c[nH]c3ccccc23)C(=O)N[C@@H](CO)C(=O)N[C@@H](Cc2csc3ccccc23)C(=O)N1C [INT 1300B] ({CH2CO}-Y[NMeA]NP[Dap]L[Hyp]WS[Bta][NMeNle][NMeNle]RCG[Aha]-NH2; thioether N-14)
14,0.3 to 9.9 nM,CCCC[C@H]1C(=O)N(C)[C@@H](CCCC)C(=O)N[C@@H](CCCNC(=N)N)C(=O)N[C@H](C(=O)NCC(=O)NCC(=O)N[C@@H](CCN=[N+]=[N-])C(N)=O)CSCC(=O)N[C@@H](Cc2ccc(O)cc2)C(=O)N(C)[C@@H](C)C(=O)N[C@@H](CC(N)=O)C(=O)N2CCC[C@H]2C(=O)N[C@@H](CN)C(=O)N[C@@H](CC(C)C)C(=O)N2C[C@H](O)C[C@H]2C(=O)N[C@@H](Cc2c[nH]c3ccccc23)C(=O)N[C@@H](CO)C(=O)N[C@@H](Cc2csc3ccccc23)C(=O)N1C [INT 1300C] ({CH2CO}-Y[NMeA]NP[Dap]L[Hyp]WS[Bta][NMeNle][NMeNle]RCGG[Aha]-NH2; thioether N-14)
